Laboratory results: ChEMBL document CHEMBL3526078, “Pharmacokinetics and hepatic uptake of eltrombopag, a novel platelet-increasing agent” (Drug Metab Dispos, 2011)

Columns and labels:
[1] = target: T1, Solute carrier organic anion transporter family member 1B1 (Homo sapiens, UniProt Q9Y6L6); assay: Inhibition of OATP1B1-mediated [3H]estrone-3-sulfate uptake in human OATP1B1 expressing HEK293/PDZK1 cells by scintillation counting; format: ADME, cell-based; details: human, hek293/pdzk1
T1 sequence (Q9Y6L6 whole entry): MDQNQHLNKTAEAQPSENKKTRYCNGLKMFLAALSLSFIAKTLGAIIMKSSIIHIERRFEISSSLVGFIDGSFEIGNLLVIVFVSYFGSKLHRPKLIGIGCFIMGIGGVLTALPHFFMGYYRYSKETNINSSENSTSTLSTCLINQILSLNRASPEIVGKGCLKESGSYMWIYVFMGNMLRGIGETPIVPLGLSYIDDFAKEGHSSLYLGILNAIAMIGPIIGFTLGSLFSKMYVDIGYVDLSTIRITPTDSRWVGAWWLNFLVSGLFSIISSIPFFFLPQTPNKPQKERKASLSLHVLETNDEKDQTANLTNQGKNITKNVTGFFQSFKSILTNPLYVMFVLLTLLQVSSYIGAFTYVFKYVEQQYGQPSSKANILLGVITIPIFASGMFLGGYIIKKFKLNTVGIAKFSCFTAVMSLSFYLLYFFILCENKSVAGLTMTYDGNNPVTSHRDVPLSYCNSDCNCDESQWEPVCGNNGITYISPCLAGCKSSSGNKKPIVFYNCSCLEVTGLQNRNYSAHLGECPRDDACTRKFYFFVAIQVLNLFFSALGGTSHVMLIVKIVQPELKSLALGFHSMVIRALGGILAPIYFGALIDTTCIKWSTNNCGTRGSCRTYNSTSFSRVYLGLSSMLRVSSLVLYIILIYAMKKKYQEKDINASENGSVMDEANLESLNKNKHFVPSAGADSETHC

[2] = target: T2, Solute carrier organic anion transporter family member 2B1 (Homo sapiens, UniProt O94956); assay: Inhibition of OATP2B1-mediated [3H]estrone-3-sulfate uptake in human OATP2B1 expressing HEK293/PDZK1 cells by scintillation counting; format: ADME, cell-based; details: human, hek293/pdzk1
T2 sequence (O94956 whole entry): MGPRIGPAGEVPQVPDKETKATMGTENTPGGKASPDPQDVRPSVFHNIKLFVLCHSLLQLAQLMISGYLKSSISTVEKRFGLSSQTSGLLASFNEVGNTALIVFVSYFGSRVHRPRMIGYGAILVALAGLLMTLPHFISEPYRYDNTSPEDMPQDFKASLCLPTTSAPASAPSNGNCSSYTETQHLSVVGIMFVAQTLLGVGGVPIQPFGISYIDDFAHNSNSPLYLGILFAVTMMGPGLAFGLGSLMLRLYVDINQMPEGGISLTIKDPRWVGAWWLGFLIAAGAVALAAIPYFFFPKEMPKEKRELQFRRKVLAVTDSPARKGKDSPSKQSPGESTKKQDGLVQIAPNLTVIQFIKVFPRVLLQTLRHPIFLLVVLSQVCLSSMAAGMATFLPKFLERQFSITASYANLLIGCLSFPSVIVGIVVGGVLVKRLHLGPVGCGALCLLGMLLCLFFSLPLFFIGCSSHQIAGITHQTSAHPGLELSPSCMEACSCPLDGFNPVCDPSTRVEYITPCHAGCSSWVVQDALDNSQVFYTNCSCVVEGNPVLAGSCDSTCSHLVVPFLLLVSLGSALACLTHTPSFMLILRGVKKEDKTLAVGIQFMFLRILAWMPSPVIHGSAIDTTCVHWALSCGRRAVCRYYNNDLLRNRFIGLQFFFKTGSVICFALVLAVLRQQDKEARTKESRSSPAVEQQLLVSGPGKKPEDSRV

[3] = target: T3, Solute carrier organic anion transporter family member 1B3 (Homo sapiens, UniProt Q9NPD5); assay: Inhibition of OATP1B3-mediated [3H]estradiol 17beta-glucuronide uptake in human OATP1B3 expressing HEK293/PDZK1 cells by scintillation counting; format: ADME, cell-based; details: human, hek293/pdzk1
T3 sequence (Q9NPD5 whole entry): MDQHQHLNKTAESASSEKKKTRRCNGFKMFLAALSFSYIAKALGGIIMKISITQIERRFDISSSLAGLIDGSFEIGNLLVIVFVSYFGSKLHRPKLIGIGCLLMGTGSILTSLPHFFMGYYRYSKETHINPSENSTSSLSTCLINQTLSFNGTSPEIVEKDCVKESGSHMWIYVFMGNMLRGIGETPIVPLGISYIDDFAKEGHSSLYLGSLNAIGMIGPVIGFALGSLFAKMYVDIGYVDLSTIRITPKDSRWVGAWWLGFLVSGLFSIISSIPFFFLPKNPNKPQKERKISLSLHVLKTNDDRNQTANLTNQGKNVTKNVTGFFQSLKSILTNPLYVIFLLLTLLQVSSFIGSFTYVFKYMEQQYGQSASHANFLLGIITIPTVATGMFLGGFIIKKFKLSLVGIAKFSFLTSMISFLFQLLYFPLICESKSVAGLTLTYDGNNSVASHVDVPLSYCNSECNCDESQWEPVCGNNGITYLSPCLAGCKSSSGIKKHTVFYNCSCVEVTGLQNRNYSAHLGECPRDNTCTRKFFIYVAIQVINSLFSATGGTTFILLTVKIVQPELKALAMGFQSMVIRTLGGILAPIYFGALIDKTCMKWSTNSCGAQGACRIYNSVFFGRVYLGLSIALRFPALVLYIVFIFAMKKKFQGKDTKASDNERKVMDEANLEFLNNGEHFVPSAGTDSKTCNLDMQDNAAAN

[4] = target: T4, Organic cation/carnitine transporter 2 (Homo sapiens, UniProt O76082); assay: Inhibition of OCTN2-mediated [14C]carnitine uptake in human OCTN2 expressing HEK293/PDZK1 cells by scintillation counting; format: cell-based
T4 sequence (O76082 whole entry): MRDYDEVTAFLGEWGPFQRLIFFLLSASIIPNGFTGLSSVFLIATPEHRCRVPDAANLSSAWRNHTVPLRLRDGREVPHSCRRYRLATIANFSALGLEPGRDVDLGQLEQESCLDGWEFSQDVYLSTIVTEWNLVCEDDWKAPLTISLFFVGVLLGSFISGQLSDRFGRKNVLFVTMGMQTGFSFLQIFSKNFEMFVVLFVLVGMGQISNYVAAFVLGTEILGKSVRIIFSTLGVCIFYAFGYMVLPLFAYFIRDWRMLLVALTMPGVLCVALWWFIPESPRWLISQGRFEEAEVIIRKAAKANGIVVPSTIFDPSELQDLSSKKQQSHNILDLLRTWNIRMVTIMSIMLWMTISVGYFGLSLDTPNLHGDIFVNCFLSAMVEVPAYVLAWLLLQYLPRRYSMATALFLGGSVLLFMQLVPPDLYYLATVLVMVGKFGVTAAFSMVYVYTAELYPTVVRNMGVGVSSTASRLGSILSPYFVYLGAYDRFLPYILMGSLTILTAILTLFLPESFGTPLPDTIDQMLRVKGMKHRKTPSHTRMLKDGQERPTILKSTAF

SMILES | inhibition (INH) [1] | inhibition (INH) [2] | inhibition (INH) [3] | inhibition (INH) [4]
O=C1OC(c2ccc(O)c(S(=O)(=O)O)c2)(c2ccc(O)c(S(=O)(=O)O)c2)c2c(Br)c(Br)c(Br)c(Br)c21 [SULFOBROMOPHTHALEIN] | Active | Active | Active | 
C[N+](C)(C)CC(O)CC(=O)[O-] (centres undefined) [CARNITINE] |  |  |  | Active
